Consider three molecules from US20160038549A1, “METHOD FOR PROMOTING INSULIN SECRETION BY USING COMPOUNDS AND EXTRACTS ISOLATED FROM ANTRODIA CAMPHORATA” (priority 2014, published 2016).

Test [1] deals with MIN6 mouse beta insulinoma cell line. Nature of the test: MTT cell viability assay with thapsigargin (TG) challenge. The conditions noted are these: then TG. It is filed as cell-based. On the procedure: MIN6 mouse beta insulinoma cell line was analyzed by MTT cell viability assay respectively. The MIN6 mouse insulinoma beta cell line is an insulinoma cell line which comes from sarcoma virus 40 transfecting non-obese diabetic mice (NOD mice) by T cells, and is a mouse insulinoma cell line having physiological characteristics of insulinoma beta cell.
MIN6 cell line was cultured in a high glucose DMEM with 15% fetal bovine serum, 50 μmol/L mercaptoethanol, 100 U/ml penicillin, and […] streptomycin. The medium was replaced the next day.
MIN6 cells were prepared for 1×10^5/ml cell liquid suspensions, and then the suspensions were incubated in a 96-well plate with 100 μl in each well. After cell attachment, the medium was replaced with a 0.2% serum medium and then the cells were cultured for 24 hours in order to keep the cells at rest. Then, 200 mg/L BSA medium and the extracts/compounds from Antrodia camphorata with a variety of predetermined concentrations (experimental groups) were added to react for 24 hours, respectively, and then thapsigargin was added to react for 24 hours. A control group was prepared by adding 100 μl medium and then incubating in a constant temperature incubator at 37° C., 5% CO2 for a period of time. 4 hours before the end of the incubating process, 20 μl MTT (0.5 mg/ml) was added into each well, the samples continued being incubated for 4 hours, and then crystalline dissolved fully with vibration. The absorbance (A) at wavelength of 570 nm was determined respectively by a reader. Then the cell viability was calculated by the following formula: the cell viability=(the average of A570 in the experimental group/the average of A570 in the control group)×100%.
Referring to FIG. 1A, the extraction from ANCA-D in different concentrations (6.25, 12.5, 25, 50, 100 ng/ml) was added into cells in each group respectively to react for 24 hours. Then, thapsigargin (TG) was added to react for 24 hours and the cell viability of each group was determined after the reaction. Thapsigargin is an endoplasmic reticulum calcium pump inhibitor which can promote depletion of calcium ions from the endoplasmic reticulum and then open store-operated channels to lead the calcium ions to increase in cells. Then, insulin secretion could be inhibited.
On the technique in general: Formazan colour is commonly taken as a measure of viable cells.

The next test has as its system MIN6 cell. Nature of the test: Glucose-stimulated insulin secretion (GSIS) assay, insulin by ELISA. It counts as cell-based, mouse. On the procedure:
In order to examine the influences of the aforementioned extracts and compounds from Antrodia camphorata for insulin secretion, GSIS assay was performed with MIN6 cell. First, MIN6 cell was incubated in 1×10^5/ml concentration in a 24-well plate and a 15% FBS DMEM medium at 37° C., 5% CO2. After cell attachment, 200 mg/1 BSA medium and the extracts and compounds from Antrodia camphorata in different concentrations were added into each well to react for 24 hours. 5.5 mM/16.7 mM glucose was further added as stimulation and then insulin was determined by ELISA. In the same time, total cellular protein in each well was extracted for a calibration by determining protein concentration with BCA assay.
(In an ELISA, binding on a coated surface is turned into a signal by an enzyme label.)

For the molecule `COC1=C(OC)[C@H](O)[C@H](C/C=C(\C)CC/C=C(\C)CC(O)C=C(C)C)[C@@H](C)C1=O` (stereo partly shown) [Antrocamol LT1, 4-hydroxy-5-[9-hydroxy-3,7,11-trimethyldodeca-2,6,10-trienyl]-2,3-dimethoxy-6-methyl-cyclohex-2-enone], the MIN6 cell viability result in test [1] (concentrations of 250, 500, and 1000 ng/ml, compared with only-TG control, FIG. 2A) was “increasing tendency was more significant”; in test [1] (pretreated with compound, compared with only-TG control, overall, FIG. 2A) it was “could increase the MIN6 cell viability”. Also, the “insulin secretion relative to control group” value in the test on MIN6 cell (pretreated with 500 ng/ml, higher glucose concentration 16.7 mM, FIG. 3C) is reported as “about 2 times”. The insulin secretion result is recorded as “slightly increased” in the test on MIN6 cell (pretreated with 500 ng/ml, lower glucose concentration 5.5 mM, FIG. 3C); “slightly increasing tendency” in the test with MIN6 cell (pretreated with 1000 ng/ml and 500 ng/ml, 5.5 mM/16.7 mM glucose, FIG. 3B); “more obvious” with MIN6 cell (pretreated with 1000 ng/ml, higher glucose concentration 16.7 mM, FIG. 3C); “increasing tendency” with MIN6 cell (pretreated with 1000 ng/ml, lower glucose concentration 5.5 mM, FIG. 3C).
In the case of `COC1=C(OC)[C@H](OC(C)=O)[C@H](C/C=C(\C)CC/C=C(\C)CC(O)C=C(C)C)[C@@H](C)C1=O` (stereo partly shown) [Antrocamol LT2, 4-acetoxy-5-[9-hydroxy-3,7,11-trimethyldodeca-2,6,10-trienyl]-2,3-dimethoxy-6-methyl-cyclohex-2-enone], the MIN6 cell viability entry in test [1] (concentration higher than 50 ng/ml, FIG. 2B) was “began to slightly decrease”; in test [1] (lower concentrations, especially 6.25~25 ng/ml, compared with only-TG control, FIG. 2B), “significantly increase the MIN6 cell viability”. The “effect of promoting insulin secretion” value in the test with MIN6 cell (pretreated with 50 ng/ml, FIG. 3B) is reported as “not observed”. Also, in the test on MIN6 cell (pretreated with 100 ng/ml, 5.5 mM/16.7 mM glucose, FIG. 3B), the “insulin secretion relative to control group” value was “about 2 times”.
Consider `COC1=C(OC)[C@H](O)[C@H](C/C=C(\C)CC/C=C(\C)C/C=C/C(C)(C)O)[C@@H](C)C1=O` [Antrocamol LT3, (4R,5R,6R)-4-hydroxy-5-[(2E,6E,9E)-11-hydroxy-3,7,11-trimethyldodeca-2,6,9-trienyl]-2,3-dimethoxy-6-methylcyclohex-2-enone], for which the MIN6 cell viability entry is “began increasing” in test [1] (concentration of 1000 ng/ml, FIG. 2C) and “did not significantly influence the MIN6 cell viability” in test [1] (concentrations lower than 500 ng/ml, compared with only-TG group, FIG. 2C). Besides, the “effect for promoting insulin secretion” value was “observed in high glucose” in the test with MIN6 cell (high glucose, FIG. 3B) and “not low glucose” in the test on MIN6 cell (low glucose, FIG. 3B). In addition, the insulin secretion entry in the test on MIN6 cell (pretreated with 250 ng/ml, 5.5 mM/16.7 mM glucose, FIG. 3B) was “slightly tendency for promoting insulin secretion”.
